Test results as given in the NIST ThermoML archive (doi:10.1021/je060271a).
Several values for one entry are separate records, joined by “and”; a condition that tells them apart may be missing. Equal values may be shown once. ± gives the expanded uncertainty stated by the source.

Conditions: Liquid, Vibrating tube method

CCCCC(=O)OCC(COC(=O)CCCC)(COC(=O)CCCC)COC(=O)CCCC [pentaerythritol tetrapentanoate]
Conditions | mass density
283.15 K, 33510 kPa | 1045.5 ± 1.3 kg/m3
283.15 K, 33550 kPa | 1045.6 ± 1.3 kg/m3
283.15 K, 33599 kPa | 1045.6 ± 1.3 kg/m3
283.15 K, 33639 kPa | 1045.6 ± 1.3 kg/m3
283.15 K, 33681 kPa | 1045.6 ± 1.3 kg/m3
283.15 K, 33731 kPa | 1045.6 ± 1.3 kg/m3
283.15 K, 33772 kPa | 1045.7 ± 1.3 kg/m3
283.15 K, 33815 kPa | 1045.7 ± 1.3 kg/m3
283.15 K, 33865 kPa | 1045.8 ± 1.3 kg/m3
283.15 K, 33908 kPa | 1045.8 ± 1.3 kg/m3
283.15 K, 33951 kPa | 1045.8 ± 1.3 kg/m3
283.15 K, 34004 kPa | 1045.7 ± 1.3 kg/m3
283.15 K, 34048 kPa | 1045.8 ± 1.3 kg/m3
283.15 K, 34093 kPa | 1045.7 ± 1.3 kg/m3
283.15 K, 34144 kPa | 1045.8 ± 1.3 kg/m3
283.15 K, 34173 kPa | 1046 ± 1.3 kg/m3
283.15 K, 34198 kPa | 1045.9 ± 1.3 kg/m3
283.15 K, 34220 kPa | 1046 ± 1.3 kg/m3
283.15 K, 34242 kPa | 1045.8 ± 1.3 kg/m3
283.15 K, 34265 kPa | 1045.9 ± 1.3 kg/m3
283.15 K, 34290 kPa | 1045.9 ± 1.3 kg/m3
283.15 K, 34312 kPa | 1046 ± 1.3 kg/m3
283.15 K, 34335 kPa | 1046 ± 1.3 kg/m3
283.15 K, 34364 kPa | 1045.9 ± 1.3 kg/m3
283.15 K, 34387 kPa | 1045.9 ± 1.3 kg/m3
283.15 K, 34410 kPa | 1046 ± 1.3 kg/m3
283.15 K, 34438 kPa | 1046 ± 1.3 kg/m3
283.15 K, 34461 kPa | 1046 ± 1.3 kg/m3
283.15 K, 34485 kPa | 1046 ± 1.3 kg/m3
283.15 K, 34516 kPa | 1046.1 ± 1.3 kg/m3
283.15 K, 34542 kPa | 1046 ± 1.3 kg/m3
283.15 K, 34572 kPa | 1046.1 ± 1.3 kg/m3
283.15 K, 34604 kPa | 1046 ± 1.3 kg/m3
283.15 K, 34620 kPa | 1046.1 ± 1.3 kg/m3
283.15 K, 34636 kPa | 1046 ± 1.3 kg/m3
283.15 K, 34638 kPa | 1046.3 ± 1.3 kg/m3
283.15 K, 34639 kPa | 1046.1 ± 1.3 kg/m3
283.16 K, 25316 kPa | 1041.3 ± 1.3 kg/m3
303.15 K, 106.42 kPa | 1010.9 ± 1.2 kg/m3
303.15 K, 106.59 kPa | 1010.8 ± 1.2 kg/m3 and 1010.9 ± 1.2 kg/m3
303.15 K, 106.6 kPa | 1010.9 ± 1.2 kg/m3 and 1010.8 ± 1.2 kg/m3
303.15 K, 106.76 kPa | 1010.9 ± 1.2 kg/m3
303.15 K, 106.77 kPa | 1010.9 ± 1.2 kg/m3
303.15 K, 106.94 kPa | 1010.9 ± 1.2 kg/m3 and 1010.8 ± 1.2 kg/m3
303.15 K, 107.11 kPa | 1010.9 ± 1.2 kg/m3
303.15 K, 107.29 kPa | 1010.9 ± 1.2 kg/m3
303.15 K, 108.17 kPa | 1010.9 ± 1.2 kg/m3
303.15 K, 109.2 kPa | 1010.9 ± 1.2 kg/m3
303.15 K, 110.59 kPa | 1010.9 ± 1.2 kg/m3
303.15 K, 112.86 kPa | 1010.8 ± 1.2 kg/m3
303.15 K, 117.2 kPa | 1011 ± 1.2 kg/m3
303.15 K, 123.99 kPa | 1010.9 ± 1.2 kg/m3
303.15 K, 133.19 kPa | 1010.9 ± 1.2 kg/m3
303.15 K, 144.48 kPa | 1010.9 ± 1.2 kg/m3
303.15 K, 156.14 kPa | 1010.9 ± 1.2 kg/m3
303.15 K, 171.79 kPa | 1010.8 ± 1.2 kg/m3
303.15 K, 193.18 kPa | 1011 ± 1.2 kg/m3
303.15 K, 228.98 kPa | 1011 ± 1.2 kg/m3
303.15 K, 269.29 kPa | 1010.9 ± 1.2 kg/m3
303.15 K, 314.67 kPa | 1011 ± 1.2 kg/m3
303.15 K, 395.83 kPa | 1011.2 ± 1.2 kg/m3
303.15 K, 513.49 kPa | 1011.2 ± 1.2 kg/m3
303.15 K, 630.95 kPa | 1011.3 ± 1.2 kg/m3
303.15 K, 647.46 kPa | 1011.3 ± 1.2 kg/m3
303.15 K, 648.16 kPa | 1011.3 ± 1.2 kg/m3
303.15 K, 649.02 kPa | 1011.3 ± 1.2 kg/m3
303.15 K, 649.71 kPa | 1011.3 ± 1.2 kg/m3
303.15 K, 650.58 kPa | 1011.3 ± 1.2 kg/m3
303.15 K, 651.45 kPa | 1011.3 ± 1.2 kg/m3
303.15 K, 652.32 kPa | 1011.2 ± 1.2 kg/m3
303.15 K, 652.67 kPa | 1011.3 ± 1.2 kg/m3
303.15 K, 653.36 kPa | 1011.3 ± 1.2 kg/m3
303.15 K, 654.41 kPa | 1011.3 ± 1.2 kg/m3
303.15 K, 654.92 kPa | 1011.2 ± 1.2 kg/m3
303.15 K, 655.97 kPa | 1011.2 ± 1.2 kg/m3
303.15 K, 657.2 kPa | 1011.2 ± 1.2 kg/m3
303.15 K, 657.72 kPa | 1011.4 ± 1.2 kg/m3
303.15 K, 658.58 kPa | 1011.3 ± 1.2 kg/m3
303.15 K, 659.27 kPa | 1011.1 ± 1.2 kg/m3
303.15 K, 660.31 kPa | 1011.3 ± 1.2 kg/m3
303.15 K, 661.18 kPa | 1011.3 ± 1.2 kg/m3
303.15 K, 661.53 kPa | 1011.3 ± 1.2 kg/m3
303.15 K, 662.58 kPa | 1011.2 ± 1.2 kg/m3
303.15 K, 664.14 kPa | 1011.4 ± 1.2 kg/m3
303.15 K, 666.75 kPa | 1011.3 ± 1.2 kg/m3
303.15 K, 667.79 kPa | 1011.3 ± 1.2 kg/m3
303.15 K, 668.65 kPa | 1011.3 ± 1.2 kg/m3
303.15 K, 669.35 kPa | 1011.2 ± 1.2 kg/m3
303.15 K, 670.22 kPa | 1011.2 ± 1.2 kg/m3
303.15 K, 675.62 kPa | 1011.2 ± 1.2 kg/m3
303.15 K, 675.96 kPa | 1011.2 ± 1.2 kg/m3
303.15 K, 676.49 kPa | 1011.4 ± 1.2 kg/m3
303.15 K, 677.36 kPa | 1011.3 ± 1.2 kg/m3
303.15 K, 678.05 kPa | 1011.3 ± 1.2 kg/m3
303.15 K, 679.27 kPa | 1011.2 ± 1.2 kg/m3
303.15 K, 680.14 kPa | 1011.3 ± 1.2 kg/m3
303.15 K, 681.01 kPa | 1011.3 ± 1.2 kg/m3
303.15 K, 681.71 kPa | 1011.3 ± 1.2 kg/m3
303.15 K, 682.41 kPa | 1011.2 ± 1.2 kg/m3
303.15 K, 685.7 kPa | 1011.3 ± 1.2 kg/m3
303.15 K, 686.57 kPa | 1011.3 ± 1.2 kg/m3
303.15 K, 688.83 kPa | 1011.2 ± 1.2 kg/m3
303.15 K, 689.69 kPa | 1011.2 ± 1.2 kg/m3
303.15 K, 690.56 kPa | 1011.4 ± 1.2 kg/m3
303.15 K, 691.43 kPa | 1011.3 ± 1.2 kg/m3
303.15 K, 692.3 kPa | 1011.4 ± 1.2 kg/m3
303.15 K, 693.35 kPa | 1011.3 ± 1.2 kg/m3
303.15 K, 694.56 kPa | 1011.3 ± 1.2 kg/m3
303.15 K, 695.08 kPa | 1011.3 ± 1.2 kg/m3
303.15 K, 696.12 kPa | 1011.3 ± 1.2 kg/m3
303.15 K, 697.16 kPa | 1011.3 ± 1.2 kg/m3
303.15 K, 698.02 kPa | 1011.3 ± 1.2 kg/m3
303.15 K, 698.55 kPa | 1011.3 ± 1.2 kg/m3
303.15 K, 699.59 kPa | 1011.3 ± 1.2 kg/m3
303.15 K, 703.59 kPa | 1011.2 ± 1.2 kg/m3
303.15 K, 704.11 kPa | 1011.3 ± 1.2 kg/m3
303.15 K, 705.15 kPa | 1011.3 ± 1.2 kg/m3
303.15 K, 706.21 kPa | 1011.3 ± 1.2 kg/m3
303.15 K, 707.07 kPa | 1011.3 ± 1.2 kg/m3
303.15 K, 708.28 kPa | 1011.3 ± 1.2 kg/m3
303.15 K, 709.15 kPa | 1011.2 ± 1.2 kg/m3
303.15 K, 710.02 kPa | 1011.3 ± 1.2 kg/m3
303.15 K, 711.24 kPa | 1011.3 ± 1.2 kg/m3
303.15 K, 711.93 kPa | 1011.4 ± 1.2 kg/m3
303.15 K, 712.98 kPa | 1011.3 ± 1.2 kg/m3
303.15 K, 713.84 kPa | 1011.2 ± 1.2 kg/m3
303.15 K, 714.72 kPa | 1011.3 ± 1.2 kg/m3
303.15 K, 715.75 kPa | 1011.3 ± 1.2 kg/m3
303.15 K, 716.62 kPa | 1011.3 ± 1.2 kg/m3
303.15 K, 717.84 kPa | 1011.3 ± 1.2 kg/m3
303.15 K, 719.05 kPa | 1011.4 ± 1.2 kg/m3
303.15 K, 720.1 kPa | 1011.3 ± 1.2 kg/m3
303.15 K, 720.79 kPa | 1011.3 ± 1.2 kg/m3
303.15 K, 721.67 kPa | 1011.2 ± 1.2 kg/m3
303.15 K, 722.71 kPa | 1011.3 ± 1.2 kg/m3
303.15 K, 723.76 kPa | 1011.3 ± 1.2 kg/m3
303.15 K, 724.45 kPa | 1011.3 ± 1.2 kg/m3
303.15 K, 725.83 kPa | 1011.4 ± 1.2 kg/m3
303.15 K, 726.87 kPa | 1011.3 ± 1.2 kg/m3
303.15 K, 727.92 kPa | 1011.4 ± 1.2 kg/m3
303.15 K, 728.79 kPa | 1011.3 ± 1.2 kg/m3
303.15 K, 730.17 kPa | 1011.2 ± 1.2 kg/m3
303.15 K, 730.7 kPa | 1011.4 ± 1.2 kg/m3
303.15 K, 731.58 kPa | 1011.3 ± 1.2 kg/m3
303.15 K, 733.65 kPa | 1011.3 ± 1.2 kg/m3
303.15 K, 734.7 kPa | 1011.3 ± 1.2 kg/m3
303.15 K, 735.91 kPa | 1011.2 ± 1.2 kg/m3
303.15 K, 736.78 kPa | 1011.2 ± 1.2 kg/m3
303.15 K, 737.82 kPa | 1011.3 ± 1.2 kg/m3
303.15 K, 739.04 kPa | 1011.4 ± 1.2 kg/m3
303.15 K, 740.26 kPa | 1011.3 ± 1.2 kg/m3
303.15 K, 741.3 kPa | 1011.3 ± 1.2 kg/m3
303.15 K, 742.16 kPa | 1011.4 ± 1.2 kg/m3
303.15 K, 743.2 kPa | 1011.3 ± 1.2 kg/m3
303.15 K, 744.08 kPa | 1011.2 ± 1.2 kg/m3
303.15 K, 745.47 kPa | 1011.3 ± 1.2 kg/m3
303.15 K, 746.33 kPa | 1011.3 ± 1.2 kg/m3
303.15 K, 747.56 kPa | 1011.3 ± 1.2 kg/m3
303.15 K, 748.76 kPa | 1011.4 ± 1.2 kg/m3
303.15 K, 749.63 kPa | 1011.3 ± 1.2 kg/m3
303.15 K, 750.5 kPa | 1011.4 ± 1.2 kg/m3
